Reference: US7960376B2, “Benzo-fused heterocycles” (priority 2007, dated 2011)

Columns and labels:
[1] = system: CFA-induced mechanical hyperalgesia; assay: Anti-hyperalgesia in the Complete Freund's Adjuvant (CFA) model of inflammatory pain, Randall-Selitto paw pressure; assay type: in vivo, Male Sprague-Dawley rats; settings: rat, injured paw, Pre-CFA 175 ± 4 g, Post-CFA 100 ± 3 g, cut-off 260 g, mean ± SEM, p < 0.05 vs Post-CFA
[2] = target: human CB2 receptor (hCB2) (Homo sapiens, UniProt P34972); assay: cell-based; assay type: cell-based; settings: intracellular cAMP, CHO-K1 cells, NKH-477 prestimulated, + agonist, − inverse agonist
Chain of human CB2 receptor (hCB2) (P34972 whole entry): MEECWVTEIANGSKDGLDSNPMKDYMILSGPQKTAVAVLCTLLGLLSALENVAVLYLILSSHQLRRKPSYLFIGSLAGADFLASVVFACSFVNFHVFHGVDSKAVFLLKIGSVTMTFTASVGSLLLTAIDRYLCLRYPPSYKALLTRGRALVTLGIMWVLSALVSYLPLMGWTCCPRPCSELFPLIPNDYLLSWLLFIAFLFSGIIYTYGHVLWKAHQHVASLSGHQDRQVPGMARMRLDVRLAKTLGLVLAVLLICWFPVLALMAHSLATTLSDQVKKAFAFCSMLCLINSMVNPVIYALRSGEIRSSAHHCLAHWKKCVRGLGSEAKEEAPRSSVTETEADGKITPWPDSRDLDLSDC

[3] = target: T1, rat CB2 receptor (rCB2) (Rattus norvegicus, UniProt Q9QZN9); assay: cell-based; assay type: cell-based; settings: intracellular cAMP, CHO-K1 cells, NKH-477 prestimulated, + agonist, − inverse agonist
T1 sequence (Q9QZN9 1-360): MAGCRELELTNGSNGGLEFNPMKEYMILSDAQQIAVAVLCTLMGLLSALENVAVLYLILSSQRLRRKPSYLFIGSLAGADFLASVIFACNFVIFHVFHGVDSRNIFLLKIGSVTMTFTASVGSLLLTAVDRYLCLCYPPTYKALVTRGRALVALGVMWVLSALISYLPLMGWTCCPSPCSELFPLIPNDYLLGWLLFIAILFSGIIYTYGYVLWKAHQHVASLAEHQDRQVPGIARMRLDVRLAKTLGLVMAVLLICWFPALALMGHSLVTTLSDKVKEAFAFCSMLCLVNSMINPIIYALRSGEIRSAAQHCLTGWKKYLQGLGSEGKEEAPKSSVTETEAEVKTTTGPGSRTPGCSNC

[4] = target: human CB1 receptor (hCB1) (Homo sapiens, UniProt P21554); assay: cAMP assay (LANCE TR-FRET) in CHO-K1 cells expressing hCB1; assay type: cell-based; settings: intracellular cAMP, NKH-477 prestimulated, + agonist, − inverse agonist
Chain of human CB1 receptor (hCB1) (P21554 whole entry): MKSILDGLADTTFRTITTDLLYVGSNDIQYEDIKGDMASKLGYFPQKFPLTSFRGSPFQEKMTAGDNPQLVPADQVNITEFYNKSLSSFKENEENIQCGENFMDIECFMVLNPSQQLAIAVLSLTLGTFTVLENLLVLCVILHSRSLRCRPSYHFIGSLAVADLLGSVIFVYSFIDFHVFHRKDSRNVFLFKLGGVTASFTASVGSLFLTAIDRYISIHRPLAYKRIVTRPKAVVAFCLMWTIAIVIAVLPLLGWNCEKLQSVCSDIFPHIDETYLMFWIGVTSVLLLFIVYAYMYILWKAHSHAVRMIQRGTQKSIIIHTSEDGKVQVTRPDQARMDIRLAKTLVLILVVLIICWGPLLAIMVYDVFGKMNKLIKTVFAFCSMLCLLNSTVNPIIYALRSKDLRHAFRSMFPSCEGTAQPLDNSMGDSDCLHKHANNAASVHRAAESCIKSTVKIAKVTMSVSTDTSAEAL

Row | Structure (SMILES) | Test Threshold ([1]; 0.1 mg/paw intrapaw) [g] | hCB2 EC50 range [2] | rCB2 EC50 range [3] | hCB1 EC50 range [4] | Test Threshold ([1]; 1 mg/paw intrapaw) [g] | EC50 ([2]; read-out: hCB2 EC50 range) [µM] | EC50 ([3]; read-out: rCB2 EC50 range) [µM] | EC50 ([4]; read-out: hCB1 EC50 range) [µM]
1 | Cc1c(C(=O)c2cccc3ccccc23)c2cccc3c2n1[C@H](CN1CCOCC1)CO3 [WIN 55212, 2, reference compound] | 255 ± 5 |  |  |  |  |  |  | 
2 | O=C(NC1CCCC1)c1ccc2c(c1)N(S(=O)(=O)c1ccc(F)cc1)CCS2 [Example 45, N-cyclopentyl-4-(4-fluorophenylsulfonyl)-3,4-dihydro-2H-benzo[b][1,4]thiazine-6-carboxamide] |  | +B | +A | +D | 179 ± 19 |  |  | 
3 | COCCCNC(=O)c1ccc2c(c1)N(S(=O)(=O)c1ccc(F)cc1)CCS2 [Example 49, 4-(4-fluorophenylsulfonyl)-N-(3-methoxypropyl)-3,4-dihydro-2H-benzo[b][1,4]thiazine-6-carboxamide] |  | +C | +A | +E |  |  |  | 
4 | O=S(=O)(c1ccc(F)cc1)N1CCSc2ccc(-c3ncc(-c4ccccc4)[nH]3)cc21 [Example 108, 4-(4-fluorophenylsulfonyl)-6-(5-phenyl-1H-imidazol-2-yl)-3,4-dihydro-2H-benzo[b][1,4]thiazine] |  | +C | +B | +E |  |  |  | 
5 | O=C(NC1CCCC1)c1ccc2c(c1)N(S(=O)(=O)c1ccccc1)CCO2 [Example 61, N-cyclopentyl-4-(phenylsulfonyl)-3,4-dihydro-2H-benzo[b][1,4]oxazine-6-carboxamide] |  | +C | +C | +E |  |  |  | 
6 | CC(C)CNC(=O)c1ccc2c(c1)N(S(=O)(=O)c1ccc(F)cc1)CCO2 [Example 60, 4-(4-fluorophenylsulfonyl)-N-isobutyl-3,4-dihydro-2H-benzo[b][1,4] oxazine-6-carboxamide] |  | +B | +B | +D |  |  |  | 
7 | O=C(c1ccc2c(c1)N(S(=O)(=O)c1ccc(F)cc1)CCS2)N1CCCCC1 [Example 77] |  | +C | +C | +E |  |  |  | 
8 | COc1ccc(C(=O)N2CCSc3ccc(C(=O)NC45CC6CC(CC(C6)C4)C5)cc32)cc1 [Example 25, N-(1-adamantyl)-4-(4-methoxybenzoyl)-3,4-dihydro-2H-benzo[b][1,4]thiazine-6-carboxamide] |  | −E | −D | −E |  |  |  | 
9 | O=C(NC12CC3CC(CC(C3)C1)C2)c1ccc2c(c1)N(C(=O)c1ccc(Cl)cc1)CCS2 [Example 24, N-(1-adamantyl)-4-(4-chlorobenzoyl)-3,4-dihydro-2H-benzo[b][1,4]thiazine-6-carboxamide] |  | −E | −D | −E |  |  |  | 
10 | O=C(c1ccc2c(c1)N(S(=O)(=O)c1ccc(F)cc1)CCS2)N1CCCC1 [Example 71] |  | +C | +C | +E |  |  |  | 
11 | O=C(NC1CCCC1)c1ccc2c(c1)N(S(=O)(=O)c1ccc(F)cc1)CCO2 [Example 62, N-cyclopentyl-4-(4-fluorophenylsulfonyl)-3,4-dihydro-2H-benzo[b][1,4]oxazine-6-carboxamide] |  | +B | +A | +D |  |  |  | 
12 | CC(C)(C)NC(=O)c1ccc2c(c1)N(S(=O)(=O)c1ccccc1)CCC(C)(C)S2 [Example 91, N-tert-butyl-2,2-dimethyl-5-(phenylsulfonyl)-2,3,4,5-tetrahydrobenzo[b][1,4]thiazepine-7-carboxamide] |  | +D | +B | −E |  |  |  | 
13 | CC(C)CNC(=O)c1ccc2c(c1)N(C(=O)c1ccccc1)CCS2 [Example 2, 4-benzoyl-N-isobutyl-3,4-dihydro-2H-benzo[b][1,4]thiazine-6-carboxamide] |  | −E | −C | −E |  |  |  | 
14 | O=C(c1ccc2c(c1)N(S(=O)(=O)c1ccc(F)cc1)CCS2)N1CCOCC1 [Example 42, (4-(4-fluorophenylsulfonyl)-3,4-dihydro-2H-benzo[b][1,4]thiazin-6-yl)(morpholino)methanone] |  | +D | +C | +E |  |  |  | 
15 | CC(C)CNC(=O)c1ccc2c(c1)N(S(=O)(=O)c1ccc(Cl)cc1)CCO2 [Example 58, 4-(4-chlorophenylsulfonyl)-N-isobutyl-3,4-dihydro-2H-benzo[b][1,4]oxazine-6-carboxamide] |  | +B | +A | +D |  |  |  | 
16 | O=S(=O)(c1ccccc1)N1CCSc2ccc(-c3nc(-c4ccccn4)no3)cc21 [Example 87, 5-(4-(phenylsulfonyl)-3,4-dihydro-2H-benzo[b][1,4]thiazin-6-yl)-3-(pyridin-2-yl)-1,2,4-oxadiazole] |  |  |  |  |  | > 10 | > 10 | > 10
17 | CC(C)(C)c1noc(-c2ccc3c(c2)N(S(=O)(=O)c2ccc(C(F)(F)F)cc2)CCS3)n1 [Example 82, 3-tert-butyl-5-(4-(4-(trifluoromethyl)phenylsulfonyl)-3,4-dihydro-2H-benzo[b][1,4]thiazin-6-yl)-1,2,4-oxadiazole] |  | +B | +B | +D |  |  |  | 
